# From patent US11384079B2, “6-5 fused rings as C5a inhibitors” (CHEMOCENTRYX, INC., priority 2017, dated 2022)
# Target: T1, C5aR (Homo sapiens, UniProt P21730)
# T1 construct: U937 cells are a monocytic cell line which express C5aR; host or cells: U937 cells (cAMP treated) or isolated neutrophils
# T1 sequence (P21730 1-350): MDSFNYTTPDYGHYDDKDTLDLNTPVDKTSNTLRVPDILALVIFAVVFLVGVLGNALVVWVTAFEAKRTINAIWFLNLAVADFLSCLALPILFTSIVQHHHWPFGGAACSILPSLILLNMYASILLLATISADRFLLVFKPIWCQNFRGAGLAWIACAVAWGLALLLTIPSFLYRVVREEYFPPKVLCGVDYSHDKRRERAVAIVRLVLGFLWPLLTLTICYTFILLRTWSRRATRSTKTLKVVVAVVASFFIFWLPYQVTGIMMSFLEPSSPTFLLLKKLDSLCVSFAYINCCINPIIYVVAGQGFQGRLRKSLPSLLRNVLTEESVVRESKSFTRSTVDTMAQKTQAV
# Experiment: chemotaxis assay (C5aR mediated migration)
# Type: cell-based
# Conditions: migration of U937 or neutrophil cells toward C5a (0.03 nM), 1.5 hours at 37° C., read-out: Mig IC50
# Experimental: U937 cells are a monocytic cell line which express C5aR, and are available from ATCC (VA). […] Cells were grown under 5% CO2/95% air, 100% humidity at 37° C. and subcultured twice weekly at 1:6 (cells were cultured at a density range of 1×10^5 to 2×10^6 cells/mL) and harvested at 1×10^6 cells/mL. Prior to assay, cells are treated overnight with 0.5 mM of cyclic AMP (Sigma, Ohio) and washed once prior to use. cAMP treated U937 cells can be used in C5aR ligand binding and functional assays.
# Optionally, human or murine neutrophils can be used to assay for compound activity. Neutrophils may be isolated from fresh human blood using density separation and centrifugation. Briefly, whole blood is incubated with equal parts 3% dextran and allowed to separate for 45 minutes. After separation, the top layer is layered on top of 15 mls of Ficoll (15 mls of Ficoll for every 30 mls of blood suspension) and centrifuged for 30 minutes at 400×g with no brake. The pellet at the bottom of the tube is then isolated and resuspended into PharmLyse RBC Lysis Buffer (BD Biosciences, San Jose, Calif.) after which the sample is again centrifuged for 10 minutes at 400×g with brake. The remaining cell pellet is resuspended as appropriate and consists of isolated neutrophils.
# Optionally, compounds may be further assayed for their ability to inhibit chemotaxis in cells. Chemotaxis assays are performed using 5 μm pore polycarbonate, polyvinylpyrrolidone-coated filters in 96-well chemotaxis chambers (Neuroprobe; Gaithersburg, Md.) using chemotaxis buffer (Hank's balanced salt solution (HBSS) and 1% FBS). C5aR ligands (i.e., C5a, R&D Systems; Minneapolis, Minn.) are use to evaluate compound mediated inhibition of C5aR mediated migration. Other chemokines (i.e., SDF-1α; R&D Systems; Minneapolis, Minn.) are used as specificity controls. […] The chambers are incubated 1.5 hours at 37° C., and the number of cells in the lower chamber quantified either by direct cell counts in five high powered fields per well or by the CyQuant assay (Molecular Probes), a fluorescent dye method that measures nucleic acid content and microscopic observation.
row,Compound,IC50
1,CCc1cccc(CC)c1-n1nc2c(c1-c1nccc3[nH]cc(Cl)c13)CN(c1ncc(C(F)(F)F)cn1)CC2 [Example 1.005],< 5 nM
2,CCc1cccc(CC)c1-n1nc2c(c1-c1c(F)cc(OC)c3[nH]ccc13)CN(c1ncc(C(F)(F)F)cn1)CC2 [Example 1.046],< 5 nM
3,CCc1cccc(CC)c1-n1nc2c(c1-c1c(F)cc(Cl)c3[nH]ccc13)CN(c1ncc(OC(C)C)cn1)CC2 [Example 1.048],< 5 nM
4,CCc1cccc(CC)c1-n1nc2c(c1-c1c(F)cc(Cl)c3[nH]ccc13)CN(c1ncc(C3CC3)cn1)CC2 [Example 1.070],< 5 nM
5,CCc1cccc(CC)c1-n1nc2c(c1-c1ccc(Cl)c3[nH]ccc13)CN(c1ncc(F)cn1)CC2 [Example 1.158],< 5 nM
6,CCc1cccc(CC)c1-n1nc2c(c1-c1ccc3[nH]ccc3c1)CN(C(C)C(C)C)CC2 (stereo not drawn) [Example 1.211],5 to 50 nM
7,CCc1cccc(CC)c1-n1nc2c(c1-c1ccc3[nH]c(C)nc3c1)CN(c1ncc(C(F)(F)F)cn1)CC2 [Example 1.016],> 500 nM
8,Cc1cccc(OCC(C)C)c1-n1nc2c(c1-c1ccc3cc[nH]c3c1)CN(CC(C)(C)C)CC2 [Example 1.236],50 to 500 nM
9,CCc1cccc(CC)c1-n1nc2c(c1-c1ccc(Cl)c3[nH]ccc13)CN(c1ccc(C(C)C)cn1)CC2 [Example 1.135],< 5 nM
10,Cc1cccc(OCC(C)C)c1-n1nc2c(c1-c1ccnc3[nH]ccc13)CN(c1ncc(C(F)(F)F)cc1F)CC2 [Example 1.217],50 to 500 nM
11,COc1c(F)cc(-c2c3c(nn2-c2c(C)cccc2C)CCN(c2ncc(C4CC4)cn2)C3)c2cc[nH]c12 [Example 1.003],< 5 nM
12,Cc1cccc(C)c1-n1nc2c(c1-c1ccc(Cl)c3[nH]ccc13)CN(c1ncc(C(F)(F)F)cc1F)CC2 [Example 1.169],5 to 50 nM
13,CCc1cccc(CC)c1-n1nc2c(c1-c1ccc(F)c3[nH]ccc13)CN(c1ncc(C(C)C)cc1F)CC2 [Example 1.180],< 5 nM
14,COc1cnc(N2CCc3nn(-c4c(C)cccc4C)c(-c4c(F)cc(Cl)c5[nH]ccc45)c3C2)nc1 [Example 1.111],5 to 50 nM
15,Cc1nc2cc(-c3c4c(nn3-c3c(C)cccc3OCC(C)C)CCN(c3ncc(C(F)(F)F)cc3F)C4)ccc2[nH]1 [Example 1.224],> 500 nM
16,Cc1cccc(C)c1-n1nc2c(c1-c1ccc(Cl)c3[nH]ccc13)CN(c1ncc(C(F)(F)F)cn1)CC2 [Example 1.060],< 5 nM
17,CCc1cccc(CC)c1-n1nc2c(c1-c1cc(Cl)c(OC)c3[nH]ccc13)CN(c1ncc(C(F)(F)F)cn1)CC2 [Example 1.044],< 5 nM

# More lines, now with the values ahead:
row,IC50,Compound
1,< 5 nM,CCc1cccc(CC)c1-n1nc2c(c1-c1c(F)cc(Cl)c3[nH]ccc13)CN(c1ccc(C(C)C)cn1)CC2 [Example 1.109]
2,> 500 nM,CCc1cccc(CC)c1-n1nc2c(c1-c1cnc3[nH]ccc3c1)CN(c1ncc(C(F)(F)F)cn1)CC2 [Example 1.011]
3,5 to 50 nM,Cc1cccc(C)c1-n1nc2c(c1-c1cccc3[nH]ccc13)CN(c1ncc(Cl)cc1Cl)CC2 [Example 1.196]
4,50 to 500 nM,Cc1cccc(C)c1-n1nc2c(c1-c1ccc(F)c3[nH]ccc13)CN(c1ncc(C(F)(F)F)cc1F)CC2 [Example 1.178]
5,50 to 500 nM,CCc1cccc(CC)c1-n1nc2c(c1-c1ccc(Cl)c3[nH]ccc13)CN(c1ncc(C(N)=O)cn1)CC2 [Example 1.064]
6,< 5 nM,Cc1cccc(OCC(C)C)c1-n1nc2c(c1-c1ccc3[nH]ccc3c1)CN(Cc1ccccc1C(F)(F)F)CC2 [Example 1.235]
7,5 to 50 nM,Cc1cccc(OCC(C)C)c1-n1nc2c(c1-c1ccc3[nH]ccc3c1)CN(c1nc(C(C)C)ns1)CC2 [Example 1.210]
8,< 5 nM,CCc1cccc(CC)c1-n1nc2c(c1-c1ccc(F)c3[nH]ccc13)CN(c1ncc(Cl)cc1Cl)CC2 [Example 1.187]
9,< 5 nM,CCc1cccc(CC)c1-n1nc2c(c1-c1c(F)cc(Cl)c3[nH]ccc13)CN(c1ncc(C(F)(F)F)cn1)CC2 [Example 1.137]
10,5 to 50 nM,Cc1cccc(OCC(C)C)c1-n1nc2c(c1-c1cccc3[nH]ccc13)CN(c1ncc(Cl)cc1Cl)CC2 [Example 1.201]
